From article PMC9739877, “Discovery and Mechanistic Investigation of Piperazinone Phenylalanine Derivatives with Terminal Indole or Benzene Ring as Novel HIV-1 Capsid Modulators” (Molecules, 2022)

Key:
[1] = human, microsomes
[2] = tested on: HIV-1 (IIIB); assay: microbe, parasite or virus in culture; assay type: cell-based; conditions: Human immunodeficiency virus 1, MT4, 50% protection against HIV-induced cytotoxicity, MT-4 cells, MTT
Description: (§1) II. In vitro anti-HIV Assay in MT-4 Cells
(§2) Evaluation of the antiviral activity of the compounds against HIV in MT-4 cells was performed using the MTT assay as described below. Stock solutions (10 × final concentration) of test compounds were added in 25 µL volumes to two series of triplicate wells to allow simultaneous evaluation of their effects on mock- and HIV-infected cells at the beginning of each experiment. Serial 5-fold dilutions of test compounds were made directly in flat-bottomed 96-well microtiter trays using a Biomek 3000 robot (Beckman Instruments, Fullerton, CA). Untreated HIV- and mock-infected cell samples were included as controls. HIV stock (50 µL) at 100-300 CCID50 (50 % cell culture infectious doses) or culture medium was added to either the infected or mock-infected wells of the microtiter tray. Mock-infected cells were used to evaluate the effects of the test compound on uninfected cells to assess the test compounds' cytotoxicity. Exponentially growing MT-4 cells were centrifuged for 5 minutes at 220 g, and the supernatant was discarded. […]
(§3) cells/mL, and 50 µL volumes were transferred to the microtiter tray wells. Five days after infection, the viability of mock-and HIV-infected cells was examined spectrophotometrically using the MTT assay. The MTT assay is based on the reduction of yellow colored 3-(4,5-dimethylthiazol-2-yl)-2,5-diphenyltetrazolium bromide (MTT) (Acros Organics) by mitochondrial dehydrogenase activity in metabolically active cells to a blue-purple formazan that can be measured spectrophotometrically. The absorbances were read in an eight-channel computer-controlled photometer (Infinite M1000, Tecan), at two wavelengths (540 and 690 nm). All data were calculated using the median absorbance value of three wells. […]
(§4) was defined as the concentration of the test compound that reduced the absorbance (OD540) of the mock-infected control sample by 50%. The concentration achieving 50% protection against the cytopathic effect of the virus in infected cells was defined as the […]

[3] = tested on: HIV-2 (ROD); assay: Anti-HIV-2 (ROD) activity in MT-4 cells, MTT assay; assay type: cell-based; conditions: Human immunodeficiency virus 2, MT4, 50% protection against HIV-induced cytotoxicity
Description: as §1, §2, §3, §4

[4] = tested on: MT-4 cells; assay: Cytotoxicity in mock-infected MT-4 cells, MTT assay; assay type: cell-based; conditions: 50% reduction of viability of mock-infected MT-4 cells
Description: (§5) II. In vitro anti-HIV Assay in MT-4 Cells […]
(§6) performed using the MTT assay as described below. Stock solutions (10 × final concentration) of test compounds were added in 25 µL volumes to two series of […]
(§7) infected cells at the beginning of each experiment. Serial 5-fold dilutions of test […]
(§8) Biomek 3000 robot (Beckman Instruments, Fullerton, CA). Untreated HIV- and mock-infected cell samples were included as controls. HIV stock (50 µL) at 100-300 CCID50 […]
(§9) or mock-infected wells of the microtiter tray. Mock-infected cells were used to evaluate […]
(§10) cytotoxicity. Exponentially growing MT-4 cells were centrifuged for 5 minutes at 220 g, and the supernatant was discarded. […]
(§11) cells/mL, and 50 µL volumes were transferred to the microtiter tray wells. Five days […]
(§12) spectrophotometrically using the MTT assay. The MTT assay is based on the reduction […]
(§13) M1000, Tecan), at two wavelengths (540 and 690 nm). All data were calculated using the median absorbance value of three wells.
(§14) (OD540) of the mock-infected control sample by 50%. The concentration achieving 50%

[5] = molecular target: T1, HIV-1 CA monomer (Human immunodeficiency virus type 1 group M subtype B, UniProt P12493); assay: biochemical; assay type: binding; conditions: SPR
T1 construct: a vector containing C-terminally His-tagged HIV-1NL4-3CA; His6 (CA-H6) (C); made in house; host or cells: E. coli BL21-Codon Plus (DE3)-RIL

[6] = molecular target: HIV-1 CA hexamer (Human immunodeficiency virus type 1 group M subtype B, UniProt P12493, A146C/E177C/M317A/W316A); assay: SPR binding to disulfide-stabilized hexameric HIV-1 CA
[7] = in vitro; conditions: human, microsomes
[8] = in vitro; conditions: both, human, plasma
[9] = Cytotoxicity in mock-infected MT-4 cells, MTT assay; assay type: cell-based; conditions: human, 50% reduction of viability of mock-infected MT-4 cells
Description: as §5, §6, §7, §8, §9, §10, §11, §12, §13, §14

Q: Which results are given for `O=C(O)Cc1ccccc1Nc1c(Cl)cccc1Cl` [Diclofenac, diclofenac]?
A: CLint(liver) [1]: 334.8 mL/min/kg; CLint(mic) [1]: 372.0 µL/min/mg; T1/2 [1]: 3.7 min

Q: Which EC50 [2] does the source give for `COc1ccc(N(C)C(=O)[C@H](Cc2cc(F)cc(F)c2)NC(=O)CN2CCN(C(=O)Cc3c[nH]c4ccc(F)cc34)CC2=O)cc1` [F2-7f, (S)-3-(3,5-difluorophenyl)-2-(2-(4-(2-(5-fluoro-1H-indol-3-yl)acetyl)-2-oxopiperazin-1-yl)acetamido)-N-(4-methoxyphenyl)-N-methylpropanamide] here?
A: The EC50 was 5.89 ± 2.03 µM.

Q: What about the EC50 [3] of the same compound?
A: Its EC50 is 5.07 ± 0.63 µM.

Q: And the CC50 [4]?
A: Its CC50 is 16.4 ± 3.38 µM.

Q: What about the Kd [5] of the same compound?
A: The Kd was 16.1 ± 1.32 µM.

Q: And the Kd [6]?
A: Its Kd is 7.2 ± 1.1 µM.

Q: And the “koff times higher than that of PF74” value ([6]; CA hexamers)?
A: The value was “approximately 8.5 times”.

Q: What about the “Ratio KD Monomer/KD Hexamer” value ([6]; SPR) of the same compound?
A: The value was 2.230.

Q: What about the “koff Hexamer” value ([6]; off-rate measured for HIV-1 CA hexamer) of the same compound?
A: The value was 0.151 ± 0.028 s⁻¹.

Q: And the “Remaining (NCF = 60 min)” value ([1]; 1 h, 1 μM)?
A: Its value is 103.5%.

Q: What about the “Remaining (T = 60 min)” value ([1]; 1 h, 1 μM) of the same compound?
A: Its value is 0.0%.

Q: What about the CLint scaled at 1 μM [7] of the same compound?
A: Its CLint scaled at 1 μM is 2480 mL/min/kg.

Q: What about the half-life at 1 μM [7] of the same compound?
A: The half-life at 1 μM was 0.5 min.

Q: What about the microsomal CLint at 1 μM [7] of the same compound?
A: Its microsomal CLint at 1 μM is 2760 µL/min/mg.

Q: And the half-life at 2 μM [8]?
A: Its half-life at 2 μM is greater than 289 min.

Q: And the remaining at 0 h, 2 μM [8]?
A: The remaining at 0 h, 2 μM was 100%.

Q: What about the remaining at 10 min, 2 μM [8] of the same compound?
A: The remaining at 10 min, 2 μM was 98%.

Q: What about the remaining at 0.5 h, 2 μM [8] of the same compound?
A: The remaining at 0.5 h, 2 μM was 97.8%.

Q: What about the remaining at 1 h, 2 μM [8] of the same compound?
A: The remaining at 1 h, 2 μM was 90.9%.

Q: And the remaining at 2 h, 2 μM [8]?
A: The remaining at 2 h, 2 μM was 86.9%.

Q: For `COc1ccc(N(C)C(=O)[C@H](Cc2cc(F)cc(F)c2)NC(=O)CN2CCN(C(=O)c3ccc(NS(C)(=O)=O)cc3)CC2=O)cc1` [F2-7h, (S)-3-(3,5-difluorophenyl)-N-(4-methoxyphenyl)-N-methyl-2-(2-(4-(4-(methylsulfonamido)benzoyl)-2-oxopiperazin-1-yl)acetamido)propenamide], which EC50 [2] is on record?
A: Its EC50 is 161 ± 15.4 µM.

Q: What about the EC50 [3] of the same compound?
A: The EC50 was 183 ± 2.77 µM.

Q: And the CC50 at 5 days [9]?
A: The CC50 at 5 days was greater than 190 µM.
